Source: patent US8063191B2, “Polynucleotides encoding for fusion proteins with natriuresis activity” (Mayo Foundation for Medical Education and Research, priority 2005, dated 2011)

Tested on: normal dogs that were anesthetized
Experiment: Hemodynamic and renal properties of intravenous LA-ANP versus ANP infusion in anesthetized normal dogs
Format: in vivo, dog
Settings: for urinary sodium excretion: baseline 47.0±18.9; for distal fractional sodium reabsorption: baseline 97.2±0.9
Method: Studies comparing LA-ANP to ANP were performed in normal dogs that were anesthetized. Equimolar concentrations of a low dose (2 pmol/kg/min) of LA-ANP and ANP were infused intravenously, where ANP was administered at a threshold concentration required to activate cyclic guanosine monophosphate. Equimolar concentrations of a high dose of LA-ANP and ANP (33 pmol/kg/min.) were also infused intravenously. Infusion of ANP or LA-ANP for 45 minutes was performed following a 30 minute baseline period, which was preceded by a 60 minute equilibrium period. Infusion was followed by a 30 minute wash-out period and three recovery (Rec) periods of 30 minutes each. Hemodynamic and renal parameters were measured at baseline (BL), during 45 minutes of infusion, and 120 minutes post-infusion.

[1] = low dose 2 pmol/kg/min i.v., at 120 minutes post-infusion
[2] = low dose 2 pmol/kg/min i.v., during infusion

| Compound | natriuresis (in words) [1] | glomerular filtration rate (in words) [2] | mean arterial pressure (in words) [2] | natriuresis (in words) [2] | diuresis (in words) (low dose 2 pmol/kg/min i.v., with infusion) | diuretic effect as compared to ANP (equimolar i.v. infusion) | natriuretic effect as compared to ANP (equimolar i.v. infusion) | glomerular filtration rate, compared to high dose of ANP (high dose 33 pmol/kg/min i.v.) | mean arterial pressure, compared to high dose of ANP (high dose 33 pmol/kg/min i.v.) | urinary sodium excretion (low dose 2 pmol/kg/min i.v., at 120 minutes post-infusion, p<0.01) | distal fractional sodium reabsorption [1] | urinary sodium excretion (low dose 2 pmol/kg/min i.v., during 45 min infusion, p<0.01) | renal blood flow, compared to low dose ANP [2] | diuresis (urine flow) (low dose 2 pmol/kg/min i.v., during infusion, baseline 0.34±0.08, p<0.01) | distal fractional sodium reabsorption [2] | distal fractional sodium reabsorption, overall, compared to low dose of ANP (low dose 2 pmol/kg/min i.v., p<0.01) |
| --- | --- | --- | --- | --- | --- | --- | --- | --- | --- | --- | --- | --- | --- | --- | --- | --- |
| CC[C@H](C)[C@@H]1NC(=O)[C@H](CCCNC(=N)N)NC(=O)[C@H](CC(=O)O)NC(=O)[C@H](CCSC)NC(=O)[C@H](CCCNC(=N)N)NC(=O)CNC(=O)CNC(=O)[C@H](Cc2ccccc2)NC(=O)[C@@H](NC(=O)[C@H](CO)NC(=O)[C@H](CO)NC(=O)[C@H](CCCNC(=N)N)NC(=O)[C@H](CCCNC(=N)N)NC(=O)[C@H](CC(C)C)NC(=O)[C@@H](N)CO)CSSC[C@@H](C(=O)N[C@@H](CC(N)=O)C(=O)N[C@@H](CO)C(=O)N[C@@H](Cc2ccccc2)C(=O)N[C@@H](CCCNC(=N)N)C(=O)N[C@@H](Cc2ccc(O)cc2)C(=O)O)NC(=O)CNC(=O)[C@H](CC(C)C)NC(=O)CNC(=O)[C@H](CO)NC(=O)[C@H](CCC(N)=O)NC(=O)[C@H](C)NC(=O)CNC1=O [ANP, reference compound] | not increased | No change | No change | not increased | no significant change |  |  |  |  |  |  |  |  |  |  |  |
| SLRRSSCFGGRMDRIGAQSGLGCNSFRYRITA-REDKQGWA (SLRRSSCFGGRMDRIGAQSGLGCNSFRYRITAREDKQGWA; listed as Homo sapiens) [LA-ANP] |  | No change | No change |  |  | greater diuretic effect | greater natriuretic effect | increased | decreased | 119.2±34.2 μEq/min. | 95.3±0.9% | 88.4±17.5 μEq/min. | increased | 1.08 ± 0.23 mL/min | 96.0±0.6% | significantly decreased |
